According to patent US7169592B2, “Producing optically active amino compounds” (Kaneka Corporation, priority 1997, dated 2007):
Marks after values point to notes of the source that are not given here.

How the values were obtained:
[1] = test system: purified enzyme protein (transaminase); test: Reactivity of purified transaminase to carbonyl compounds with (R)-1-phenylethylamine as amino group donor; type: biochemical, Arthrobacter species KNK168; settings: for Relative Activity: 25 mM carbonyl compound, 25 mM (R)-1-phenylethylamine, pH 8.5, 30° C., pyruvic acid = 100; for Reactivity as carbonyl compound (in words): (R)-1-phenylethylamine as amino group donor
Protocol: Using the purified enzyme protein obtained in Example 9, reactivities to various carbonyl compounds using (R)-1-phenylethylamine as an amino group donor were evaluated. A 50 μl solution of the purified enzyme protein was added to 200 μl substrate solution [0.1 M Tris-HCl buffer (pH 8.5), 25 mM (R)-1-phenylethylamine, 0.1 mM pyridoxal phosphate, and 25 mM various carbonyl compounds], and the mixture was reacted at 30° C. for 1 to 3 hours in tube. The reaction tube was transferred into boiling water to stop the reaction, and thereafter, the reaction mixture was diluted five-folds with methanol. This diluted solution was analyzed by high-performance liquid chromatography using a fine pack C18-5 column and using methanol-water (20:80) as an eluent to quantitate acetophenone formed by the reaction.

[2] = test system: Arthrobacter species KNK168 strain; test: Amino group donors in whole-cell transamination of 1-(3,4-dimethoxyphenyl)-2-propanone; type: cell-based
Protocol: The cultured cells were harvested by centrifugation, and the harvested cells were suspended in a reaction mixture (pH 8.5) containing 1% 1-(3,4-dimethoxyphenyl)-2-propanone, 0.1% Triton X-100, and 1% an amino group donor shown in Table 5. The mixture was reacted at 35° C. for 20 hours.

[3] = test system: Transaminase of Present Invention (purified enzyme); test: Reactivity of purified transaminase to amino compounds (amino group donors) with pyruvic acid as acceptor; type: biochemical, Arthrobacter sp. KNK168; parameters: Substrate Specificity, relative activity: concentration or dose not given beside the values; settings: for Relative Activity: amino compound 40 mM in substrate solution, pyruvic acid acceptor, pH 8.3, 30° C., 1 hour, (R)-1-phenylethylamine = 100; for Reactivity as amino compound (in words): pyruvic acid as amino acceptor
Text: (§1) The differences with the ω-amino acid transaminase derived from Pseudomonas sp. F-1 (Agric. Biol. Chem., 42, 2363–2367 (1978), Agric. Biol. Chem., 43, 1043–1048 (1979), J. Biol. Chem., 258, 2260–2265 (1983)) which have been well studied among the ω-amino acid transaminases, and with the benzylamine transaminase of Okada et al. (Japanese Patent Laid-Open No. Hei 6-178685) are summarized and shown in Table 2. In a case of the transaminase reaction in the present invention, the data of the purified enzyme are used, and in cases of those by other two enzymes, the data of the purified enzymes which are disclosed in each of the literature publication and laid-open patent publication are used. Pyruvic acid is used as an amino group acceptor in all cases.
Using the purified enzyme protein obtained in Example 9, reactivities to various amino compounds when using pyruvic acid as an amino acceptor were evaluated. A 150 μl solution of the purified enzyme protein solution diluted ten-folds was added to a 150 μl substrate solution [0.1 M potassium phosphate buffer (pH 8.3), 40 mM pyruvic acid, 0.1 mM pyridoxal phosphate, and 40 mM various amino compounds]. The components were reacted at 30° C. for 1 hour. The reaction tube was transferred into boiling water to stop the reaction, and thereafter, a part of the reaction mixture was diluted five-folds. Ten μl 0.1 M boric acid buffer (pH 8.0) and a 20 μl ethanol solution of 80 mM 4-fluoro-7-nitro-2,1,3-benzoxadiazole (NBD-F) were added to the 10 μl above-mentioned diluted reaction mixture. The resulting mixture was reacted at 60° C. for 1 minute, and thereafter, the resulting mixture was ice-cooled, and 460 μl 5 mM HCl was added thereto. This reaction mixture was analyzed by high-performance liquid chromatography using a fine pack C18-5 column (manufactured by Nippon Bunko) I and using 0.1 M potassium phosphate buffer (pH 6.5) and CH3CN (90:10) as an eluent to detect formation of NBD-Alanine with an excitation wavelength of 470 nm and a detection wave of […]. The results thereof are shown in Table 8 in terms of relative activity in the case of using […] as a substrate.

[4] = target: T1, ω-amino acid transaminase (Pseudomonas putida, UniProt P28269); settings: purified enzyme, literature; pyruvic acid as amino group acceptor; cited from earlier work
T1 sequence (P28269 1-449): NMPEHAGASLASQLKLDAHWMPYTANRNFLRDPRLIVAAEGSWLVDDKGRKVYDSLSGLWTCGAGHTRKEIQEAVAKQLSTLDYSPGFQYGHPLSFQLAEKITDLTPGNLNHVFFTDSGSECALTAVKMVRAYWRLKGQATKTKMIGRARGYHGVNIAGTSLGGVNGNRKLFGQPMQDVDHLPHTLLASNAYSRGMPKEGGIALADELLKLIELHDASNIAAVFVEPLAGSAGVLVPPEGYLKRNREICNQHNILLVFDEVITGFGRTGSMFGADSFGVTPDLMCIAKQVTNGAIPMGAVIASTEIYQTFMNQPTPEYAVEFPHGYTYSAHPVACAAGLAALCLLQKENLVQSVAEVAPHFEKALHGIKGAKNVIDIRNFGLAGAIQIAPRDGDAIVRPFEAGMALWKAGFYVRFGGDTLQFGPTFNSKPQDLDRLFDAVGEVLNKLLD

[5] = test system: transaminase (intracellular enzyme); test: Activity of the transaminase (intracellular enzyme) on typical substrates of ω-aminotransferases; type: biochemical, Arthrobacter sp. KNK168
[6] = test system: Transaminase of Present Invention (purified enzyme); test: Influence of reaction inhibitors on purified transaminase; type: biochemical, Arthrobacter sp. KNK168; settings: inhibitor 1 mM; without addition = 100
Text: as §1

[7] = test system: Arthrobacter species KNK168 strain; test: Surfactant and fatty acid additives in whole-cell transamination; type: cell-based; settings: for (R)-DMA Formed: 30° C., pH 8.5, 20 hours; for Effect of additive on yield of reaction product (in words): whole cells
Protocol: The cells obtained by culturing the Arthrobacter species KNK168 strain in the R medium were suspended in a reaction mixture containing 2% 1-(3,4-dimethoxyphenyl)-2-propanone and 4% (RS)-1-phenylethylamine. The surfactants and fatty acids shown in Table 6 were added thereto, and the mixture was reacted at 30° C. at a pH of 8.5 for 20 hours.

[8] = 1% amino group donor, 1% 1-(3,4-dimethoxyphenyl)-2-propanone, 0.1% Triton X-100, pH 8.5, 35° C., 20 hours
[9] = amino group acceptor 2-ketoglutaric acid, (R)-1-phenylethylamine/pyruvic acid = 100 (control)
[10] = amino group acceptor pyruvic acid, (R)-1-phenylethylamine = 100 (control)
[11] = additive 0.1%, no addition 28.1

2-Decane
Relative Activity [1]: 3%

CC(CN)c1ccccc1 (racemic) [(RS)-1-Amino-2-phenylpropane]
(R)-DMA Formed ([2]; pH 8.5): 1.8%

CC(N)c1ccccc1 (racemic) [(RS)-1-Phenylmethylamine]
(R)-DMA Formed [2, 8]: 3.1%

CC(N)CO (racemic) [(RS)-2-Amino-1-propanol]
(R)-DMA Formed [2, 8]: 9.6%

NC(CO)c1ccccc1 (racemic) [(RS)-2-Amino-2-phenylethanol]
(R)-DMA Formed [2, 8]: 48.4%

NC(CO)Cc1ccccc1 (racemic) [(RS)-2-Amino-3-phenylpropanol]
(R)-DMA Formed [2, 8]: 22.7%

CC(N)CCc1ccccc1 (racemic) [(RS)-2-Amino-4-phenylbutane]
(R)-DMA Formed [2, 8]: 27.6%

CC(N)CC(=O)O (racemic) [DL-3-Aminobutyric acid]
Action of the transaminase on the substance (in words) [3]: does not act on
Substrate Specificity, relative activity ([3]; purified enzyme, pyruvic acid as amino group acceptor): 0%
Substrate Specificity, relative activity [4]: 96%

NC(=O)CC(N)C(=O)O (racemic) [DL-Asparagine]
Relative Activity [5, 9]: 0%

NC(=O)CCC(N)C(=O)O (racemic) [DL-Glutamine]
Relative Activity [5, 9]: 0%

NCCCCC(N)C(=O)O (racemic) [DL-Lysine]
Relative Activity [5, 9]: 0%

NCCCC(N)C(=O)O (racemic) [DL-Ornithine]
Relative Activity [5, 9]: 0%

NC1C=CC=C(C(=O)O)C1 (racemic) [Gabaculine]
Relative activity with inhibitor [6]: 24%

COc1ccc(CC(C)=O)cc1OC [1-(3,4-Dimethoxyphenyl)-2-propanone]
Relative Activity [1]: 7%

COCC(C)=O [1-Methoxy-2-propanone]
Relative Activity [1]: 16%

CCCCCCC(C)N (stereo not drawn) [1-Methylheptylamine]
Relative Activity [3]: 47%

CCC(C)N (stereo not drawn) [1-Methylpropylamine]
Relative Activity [3]: 1.2%

CCC(=O)Cc1ccccc1 [1-Phenyl-2-butanone]
Relative Activity [1]: 1%

O=C1CCCc2ccccc21 [1-Tetralone]
Relative Activity [1]: 1%

NCCCC(N)C(=O)O (stereo not drawn) [2,5-Diaminovalerate]
Relative Activity [5, 9]: 2%

CC(=O)c1ccco1 [2-Acetylfuran]
Relative Activity [1]: 2%

CC(=O)c1cnccn1 [2-Acetylpyrazine]
Relative Activity [1]: 17%

CC(=O)c1ccccn1 [2-Acetylpyridine]
Relative Activity [1]: 19%

CC(=O)c1nccs1 [2-Acetylthiazole]
Relative Activity [1]: 10%

CC(=O)c1cccs1 [2-Acetylthiophene]
Relative Activity [1]: 1%

CCC(=O)C(=O)O [2-Ketobutyric acid]
Relative Activity [1]: 7%

CCCCC(C)CN (stereo not drawn) [2-Methylhexylamine]
Relative Activity [3]: 37%

CC(=O)Oc1cccnc1 [3-Acetoxypyridine]
Relative Activity [1]: 1%

CC(=O)c1cccnc1 [3-Acetylpyridine]
Relative Activity [1]: 8%

CC(N)CCc1ccccc1 (stereo not drawn) [3-Aminophenylbutane]
Relative Activity [3]: 84%
Reactivity as amino compound (in words) [3]: favorable reactivities

COc1ccc(CCC(C)=O)cc1 [4-(4-Methoxyphenyl)-2-butanone]
Relative Activity [1]: 7%

CC(=O)c1ccncc1 [4-Acetylpyridine]
Relative Activity [1]: 27%

C[C@@H](N)c1cccc2ccccc12 [(R)-1-Naphthylethylamine]
(R)-DMA Formed [2, 8]: 34.2%

C[C@@H](N)c1ccccc1 [(R)-1-Phenylethylamine]
Relative Activity [3]: 100%
Activity on the substance as amino group donor (in words) [5]: especially high activity
Relative Activity [5, 10]: 100* %

N[C@@H](CO)c1ccccc1 [(R)-2-Phenylglycinol]
Relative Activity [3]: 0%

C[C@H](N)c1ccccc1 [(S)-1-Phenylethylamine]
Relative Activity [3]: 0%

N[C@H](CO)c1ccccc1 [(S)-2-Phenylglycinol]
Relative Activity [3]: 180%
Reactivity as amino compound (in words) [3]: favorable reactivities

CC(=O)CCc1ccccc1 [Benzyl acetone]
Relative Activity [1]: 3%

CCCCCCCCCCCCCCCC[N+](C)(C)C.[Br-] [Cetyl trimethyl ammonium bromide]
(R)-DMA Formed [7, 11]: 29.1%

CC(=O)C(C)=O [Diacetyl]
Relative Activity [1]: 10%

CCOC(=O)CC(C)=O [Ethyl acetoacetate]
Relative Activity [1]: 4%

CCOC(=O)CC(=O)c1ccccc1 [Ethyl benzoyl acetate]
Relative Activity [1]: 2%

CCOC(=O)C(C)=O [Ethyl pyruvate]
Relative Activity [1]: 27%

O=CC(=O)O [Glyoxylic acid]
Relative Activity [1]: 4%

N[C@H](CO)Cc1ccccc1 [L-Phenylalaninol]
Relative Activity [3]: 0.8%

CCCCC/C=C\C/C=C\CCCCCCCC(=O)O [Linoleic Acid]
(R)-DMA Formed ([7]; additive 2.9%): 45.1%
Effect of additive on yield of reaction product (in words) [7]: yield of the reaction product was increased

CCCCCCCC/C=C\CCCCCCCC(=O)O [Oleic Acid]
(R)-DMA Formed ([7]; additive 2.9%): 44.9%
Effect of additive on yield of reaction product (in words) [7]: yield of the reaction product was increased

O=C(O)CC(=O)C(=O)O [Oxalacetic acid]
Relative Activity [1]: 87%
Reactivity as carbonyl compound (in words) [1]: favorable reactivities

CC(=O)COc1ccccc1 [Phenoxy-2-propanone]
Relative Activity [1]: 83%
Reactivity as carbonyl compound (in words) [1]: favorable reactivities

O=CCc1ccccc1 [Phenyl acetaldehyde]
Relative Activity [1]: 13%

CC(=O)C(=O)O [Pyruvic acid]
Relative Activity [1]: 100%

CCCCCCCCCCCCOS(=O)(=O)[O-].[Na+] [Sodium dodecyl sulfate]
(R)-DMA Formed [7, 11]: 45.3%
(R)-DMA Formed ([7]; additive 0.5%): 42.2%
(R)-DMA Formed ([7]; additive 1.0%): 46.3%
(R)-DMA Formed ([7]; additive 2.0%): 50.1%
(R)-DMA Formed ([7]; additive 3.0%): 51.9%
(R)-DMA Formed ([7]; additive 4.0%): 53.1%
Effect of additive on yield of reaction product (in words) [7]: yield of the reaction product was increased

NCCS(=O)(=O)O [Taurine]
Relative Activity [5, 9]: 0%

NCCC(N)C(=O)O (stereo not drawn) [α-2,4-Diaminobutyric acid]
Relative Activity [5, 10]: 0%

Triton X-100
(R)-DMA Formed [7, 11]: 31.6%
(R)-DMA Formed ([7]; additive 0.5%): 34.0%
